Laboratory results reported in patent publication US20230234969A1, “N-LINKED MACROCYCLIC 7-(PYRAZOL-5-YL)-INDOLE DERIVATIVES AS INHIBIORS OF MCL-1” (Janssen Pharmaceutica NV, priority 2020, published 2023).

Experiments:
[1] = target: Myeloid Cell Leukemia 1 (Mcl-1) (Homo sapiens, UniProt Q07820); test: Terbium labeled Mcl-1 HTRF binding assay, displacement of Cy5-labeled BIM BH3 peptide; conditions: 25 pM Tb-Mcl-1, 8 nM Cy5 Bim peptide, Ki=IC50/(1+[L]/Kd), [L]=8 nM, Kd=10 nM, 60 min room temperature, read-out: Tb-MCLl Ki
Chain of Myeloid Cell Leukemia 1 (Mcl-1) (Q07820 whole entry): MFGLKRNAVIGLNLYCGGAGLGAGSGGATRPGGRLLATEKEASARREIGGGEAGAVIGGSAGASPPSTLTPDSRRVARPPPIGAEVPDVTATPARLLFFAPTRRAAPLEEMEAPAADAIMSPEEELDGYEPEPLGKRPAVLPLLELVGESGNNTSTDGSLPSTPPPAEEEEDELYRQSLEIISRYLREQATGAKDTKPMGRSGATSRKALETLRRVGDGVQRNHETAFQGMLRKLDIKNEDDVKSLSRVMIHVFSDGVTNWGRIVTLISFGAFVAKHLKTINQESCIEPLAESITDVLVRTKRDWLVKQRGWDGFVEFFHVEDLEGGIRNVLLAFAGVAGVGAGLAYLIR
Experimental: Terbium labeled Myeloid Cell Leukemia 1 (Mcl-1) homogeneous time-resolved fluorescence (HTRF) binding assay utilizing the BIM BH3 peptide (H2N-(C/Cy5Mal) WIAQELRRIGDEFN-OH) as the binding partner for Mcl-1.
This assay evaluated inhibition of the BH3 domain: Mcl-1 interaction by measuring the displacement of Cy5-labeled BIM BH3 peptide (H2N—(C/Cy5Mal) WIAQELRRIGDEFN-OH) in the HTRF assay format.
The following assay and stock buffers were prepared for use in the assay: (a) Stock buffer: 10 mM Tris-HCl, pH=7.5+150 mM NaCl, filtered, sterilized, and stored at 4° C.; and (b) 1×assay buffer, where the following ingredients were added fresh to stock buffer: 2 mM dithiothreitol (DTT), 0.0025% Tween-20, 0.1 mg/mL bovine serum albumin (BSA). The 1×Tb-Mcl-1+Cy5 Bim peptide solution was prepared by diluting the protein stock solution using the 1×assay buffer (b) to 25 pM Tb-Mcl-1 and 8 nM Cy5 Bim peptide.
Using the Acoustic ECHO, 100 nL of 100×test compound(s) were dispensed into individual wells of a white 384-well Perkin Elmer Proxiplate, for a final compound concentration of 1× and final DMSO concentration of 1%. Inhibitor control and neutral control (NC, 100 nL of 100% DMSO) were stamped into columns 23 and 24 of assay plate, respectively. Into each well of the plate was then dispensed 10 μL of the 1×Tb-Mcl-1+Cy5 Bim peptide solution. The plate was centrifuged with a cover plate at 1000 rpm for 1 minute, then incubated for 60 minutes at room temperature with plates covered. The TR-FRET signal was read on an BMG PHERAStar FSX MicroPlate Reader at room temperature using the HTRF optic module (HTRF: excitation: 337 nm, light source: laser, emission A: 665 nm, emission B: 620 nm, integration start: 60 μs, integration time: 400 μs).
The BMG PHERAStar FSX MicroPlate Reader was used to measure fluorescence intensity at two emission wavelengths—665 nm and 620 nm—and report relative fluorescence units (RFU) for both emissions, as well as a ratio of the emissions (665 nm/620 nm)*10,000. The RFU values were normalized to percent inhibition as follows:
% inhibition=(((NC−IC)−(compound−IC))/(NC−IC))*100
where IC (inhibitor control, low signal)=mean signal of 1×Tb-MCl-1+Cy5 Bim peptide+inhibitor control or 100% inhibition of Mcl-1; NC (neutral control, high signal)=mean signal 1×Tb-MCl-1+Cy5 Bim peptide with DMSO only or 0% inhibition
An 11-point dose response curve was generated to determine IC50 values (using GenData) based on the following equation:
Y=Bottom+(Top−Bottom)/(1+10^((log IC50−X)*HillSlope))
where Y=% inhibition in the presence of X inhibitor concentration; Top=100% inhibition derived from the IC (mean signal of Mcl-1+inhibitor control); Bottom=0% inhibition derived from the NC (mean signal of Mcl-1+DMSO); Hillslope=Hill coefficient; and IC50=concentration of compound with 50% inhibition in relation to top/neutral control (NC).
In this assay [L]=8 nM and Kd=10 nM
Representative compounds of the present invention were tested according to the procedure as described above, with results as listed in the Table below (n.d. means not determined).

[2] = system: MOLP-8 human multiple myeloma cell line; test: Caspase-Glo 3/7 assay in MOLP-8 cells (apoptosis induction); format: cell-based; conditions: MOLP8 cells, 2 hours incubation at 37° C.; averaged values over all runs on all batches
Excerpt: MCL-1 is a regulator of apoptosis and is highly over-expressed in tumor cells that escape cell death. The assay evaluates the cellular potency of small-molecule compounds targeting regulators of the apoptosis pathway, primarily MCL-1, Bfl-1, Bcl-2, and other proteins of the Bcl-2 family. Protein-protein inhibitors disrupting the interaction of anti-apoptotic regulators with BH3-domain proteins initiate apoptosis.
The Caspase-Glo® 3/7 Assay is a luminescent assay that measures caspase-3 and -7 activities in purified enzyme preparations or cultures of adherent or suspension cells. The assay provides a proluminescent caspase-3/7 substrate, which contains the tetrapeptide sequence DEVD. This substrate is cleaved to release aminoluciferin, a substrate of luciferase used in the production of light. Addition of the single Caspase-Glo® 3/7 Reagent in an “add-mix-measure” format results in cell lysis, followed by caspase cleavage of the substrate and generation of a “glow-type” luminescent signal.
This assay uses the MOLP-8 human multiple myeloma cell line, which is sensitive to MCL-1 inhibition.
Cell cultures were maintained between 0.2 and 2.0×10^6 cells/mL. The cells were harvested by collection in 50 mL conical tubes. The cells were then pelleted at 500 g for 5 mins before removing supernatant and resuspension in fresh pre-warmed culture medium. The cells were counted and diluted as needed.
The assay reagent was prepared by transferring the buffer solution to the substrate vial and mixing. The solution may be stored for up to 1 week at 4° C. with negligible loss of signal.
Compounds were delivered in assay-ready plates (Proxiplate) and stored at −20° C. Assays always include 1 reference compound plate containing reference compounds. The plates were spotted with 40 nL of compounds (0.5% DMSO final in cells; serial dilution; 30 μM highest conc. 1/3 dilution, 10 doses, duplicates). The compounds were used at room temperature and 4 μL of pre-warmed media was added to all wells except column 2 and 23. The negative control was prepared by adding 1% DMSO in media. The positive control was prepared by adding the appropriate positive control compound in final concentration of 60 μM in media. The plate was prepared by adding 4 μL negative control to column 23, 4 μL positive control to column 2 and 4 μL cell suspension to all wells in the plate. The plate with cells was then incubated at 37° C. for 2 hours. The assay signal reagent is the Caspase-Glo solution described above, and 8 μL was added to all wells. The plates were then sealed and measured after 30 minutes.
The activity of a test compound was calculated as percent change in apoptosis induction as follows:
[formula] % Effect (AC50)=100−((sample−LC)/(HC−LC))*100
% Control=(sample/HC)*100
% Control min=(sample−LC)/(HC−LC)*100

| SMILES | Ki [1] [nM] | AC50 [2] [nM] |
| --- | --- | --- |
| COCCOCCn1c(C(=O)O)c2c3ccc(Cl)c(c31)-c1c(C)c(C)nn1CCCc1cc(n(C)n1)CCc1cc(c3ccc(F)cc3c1)OCCC2 (single isomer, unassigned) [Compound 6] | 1.93 | 1930 |
| CCn1c(C(=O)O)c2c3ccc(Cl)c(c31)-c1c(C)c(C)nn1CCCc1cc(n(CCOC)n1)CCc1cc(c3ccc(F)cc3c1)OCCC2 (single isomer, unassigned) [Compound 9] | 0.061 | 53 |
| CCn1c(C(=O)O)c2c3ccc(Cl)c(c31)-c1c(C)c(C)nn1CCCc1cc(n(CCN(C)C)n1)CCc1cc(c3ccc(F)cc3c1)OCCC2 (single isomer, unassigned) [Compound 7] | 0.052 | 16 |
| Cc1nn2c(c1C)-c1c(Cl)ccc3c(c(C(=O)O)n(C)c13)CCCOc1cc(cc3ccccc13)SCc1cc(nn1C)CCC2 (single isomer, unassigned) [Compound 2] | 3.21 | 2710 |
| CCn1c(C(=O)O)c2c3ccc(Cl)c(c31)-c1c(C)c(C)nn1CCCc1cc(n(CCN(C)C)n1)CCc1cc(c3ccc(F)cc3c1)OCCC2 (single isomer, unassigned) [Compound 8] | 8.06 | 1560 |
| Cc1nn2c(c1C)-c1c(Cl)ccc3c(c(C(=O)O)n(C)c13)CCCOc1cc(cc3ccccc13)SCc1cc(nn1C)CCC2 (single isomer, unassigned) [Compound 1] | 0.09 | 67 |
| CCn1c(C(=O)O)c2c3ccc(Cl)c(c31)-c1c(C)c(C)nn1CCCc1cc(n(C)n1)CCc1cc(c3ccc(F)cc3c1)OCCC2 (single isomer, unassigned) [Compound 4] | 33.7 | 13100 |
| CCn1c(C(=O)O)c2c3ccc(Cl)c(c31)-c1c(C)c(C)nn1CCCc1cc(n(C)n1)CCc1cc(c3ccc(F)cc3c1)OCCC2 (single isomer, unassigned) [Compound 3] | 0.043 | 36 |
| COCCOCCn1c(C(=O)O)c2c3ccc(Cl)c(c31)-c1c(C)c(C)nn1CCCc1cc(n(C)n1)CCc1cc(c3ccc(F)cc3c1)OCCC2 (single isomer, unassigned) [Compound 5] | 0.027 | 27 |
| CCn1c(C(=O)O)c2c3ccc(Cl)c(c31)-c1c(C)c(C)nn1CCCc1cc(n(CCOC)n1)CCc1cc(c3ccc(F)cc3c1)OCCC2 (single isomer, unassigned) [Compound 10] | 3.06 | 3060 |
